# Experiments:
# P. falciparum 3D7 = P. falciparum 3D7 SCID mouse model, in vivo efficacy; design: species or system Plasmodium falciparum (SCID mice); details: oral 150 mg kg^–1 day^–1, four consecutive days, one animal
# Description: The animal experiments against P. berghei were carried out at the Swiss Tropical and Public Health Institute adhering to local and national regulations of laboratory animal welfare in Switzerland (awarded permission no. BL530). Protocols are regularly reviewed and revised following approval by the local authority (Amt für Lebensmittelsicherheit and Veterinärwesen Basel-Land). Female mice infected with GFP-expressing P. berghei (ANKA strain, donated by A. P. Waters and C. J. Janse, Leiden University, The Netherlands) were analyzed for in vivo efficacy of 7e and 8a as described previously.[18],[19] Parasitemia was determined using flow cytometry with a detection limit of 1 parasite in 1000 erythrocytes. Compound activity was calculated as the difference between the mean parasitemia for the control and treated groups (n = 3, each) expressed relative to the control group. 7e and 8a were suspended in 70/30 Tween 80/ethanol, diluted 10-fold with water and administered orally 4, 24, 48, and 72 h after infection. 7e was analyzed at 30, 10, and 3 mg kg^–1, 8a at 50, and 10 mg kg^–1. In vivo efficacy against P. falciparum was conducted at The Art of Discovery, TAD, Bizkaia, Spain, according to the previously described standard assay.[16],[17]
# [1] = Blood levels of compound in the SCID mouse model; format: in vivo
smiles,measurement,setting,value
"CCCNc1ccc(C(=O)/C=C(\O)C(F)(F)C(F)(F)F)cn1 [7e, 4,4,5,5,5-Pentafluoro-3-hydroxy-1-(6-(propylamino)pyridin-3-yl)pent-2-en-1-one]",effect on parasite load,P. falciparum 3D7,decreased the parasite load below the starting parasitemia
same,blood concentration (peak),[1]; oral 4 × 50 mg kg^–1,~2 μg mL^–1
same,half-life,"[1]; whole blood, oral 4 × 50 mg kg^–1, read-out: half-life from modeled blood profile",2 to 4 h
